Results reported in ChEMBL document CHEMBL3507680, “University of Dundee, Gates Library screen for HepG2 cell viability”.

Experiment: Human HepG2 cell viability assay in 384 well format
Type: toxicity, cell-based
Design: dose 125 nL, time 70.5 hour; cytotoxicity at 70.5 h: concentration not given beside the values
Conditions: HepG2 cells, read-out: Inhibition

Row | SMILES | cytotoxicity at 70.5 h
1 | Cc1noc(-c2ccc(N3CCC(C(=O)N4CCCC4)CC3)nc2)n1 | -1.82%
2 | O=C1CCCN1CCCC(=O)N1CCCCC1c1ccc(F)cc1 (configuration not stated) | 2.07%
3 | CN1CCN(Cc2noc(-c3cc(-c4ccc(F)cc4)n[nH]3)n2)CC1 | 31.6%
4 | CCc1cnc(C)nc1N1CCS(=O)(=O)CC1 | -7.02%
5 | O=C(c1ccc[nH]1)N1CCc2cc(S(=O)(=O)N3CCOCC3)ccc2C1 | 50.8%
6 | Cc1ccc(C2(O)CCN(C(=O)c3sccc3S(N)(=O)=O)CC2)nc1 | -4.05%
7 | CCn1c(C)nnc1SCCNC(=O)c1cccc2ccnn12 | 14.1%
8 | O=C(c1cnn[nH]1)N(Cc1ccncc1)CC1CCCO1 (configuration not stated) | -0.844%
9 | O=c1[nH]c(-c2ccc(Cl)cc2)nc2c1CCNC2 | 12.1%
10 | O=C(C1NCCc2[nH]cnc21)N1CCC2(CC1)CNc1ccccc12 (configuration not stated) | -11.9%
11 | CCCC(=O)Nc1cc2c(cc1OC)NC(=O)CC2c1ccc(CC)o1 (configuration not stated) | 22.1%
12 | CC(C)c1ccc(CN2CCC(CNS(=O)(=O)C3CC3)C2)cc1 (configuration not stated) | -3.87%
13 | COc1cccc2c1OCC(CNC(=O)CN(C)C1CCCC1)C2 (configuration not stated) | 6.99%
14 | CN(Cc1nc(Cc2ccccc2F)no1)CC1Cc2ccccc2O1 (configuration not stated) | 8.45%
15 | Cn1cc(CN(CC2(O)CNCCOC2)C2CCCCC2)cn1 (configuration not stated) | -8.06%
16 | CN(CC1CCN(c2ccccc2)C1)c1ccc(Cn2ccnc2)cn1 (configuration not stated) | -13.6%
17 | Cc1ccn2cc(C(=O)N3CCCC(Cn4cc(CO)nn4)C3)nc2c1 (configuration not stated) | 17.5%
18 | CCC1(O)CCCN(c2nc(C(C)(C)C)nc3c2cnn3C)C1 (configuration not stated) | -9.12%
19 | COc1cccc(N2CCN(C(=O)C(OC)c3ccccc3)CC2=O)c1 (configuration not stated) | -7.1%
20 | CN(Cc1ccccc1)C(=O)CCN1CCC2(CC1)[C@H](O)C[C@@H]2O | -8.64%
21 | CCCc1nnc(NCCCn2nc(C)c(Cl)c2C)o1 | -7.76%
22 | CCn1nc(C)c(CN2CCCC(c3ccc(C(=O)O)cc3)C2)c1C (configuration not stated) | 24.4%
23 | N[C@H]1CN(C(=O)c2cnc3cc(Cl)ccc3c2O)C[C@@H]1C1CC1 | 5.93%

Row | SMILES | cytotoxicity at 70.5 h
24 | CC(CN1CCC2(CC1)N=C(c1cccnc1)NC2=O)c1ccccc1 (configuration not stated) | -7.3%
25 | COC[C@@]12CC[C@@H](N3CCOCC3)C[C@H]1CCN(c1cc(C)ccn1)C2 | -1.61%
26 | Cc1cccnc1CC(C)N(C)Cc1cccs1 (configuration not stated) | -13.2%
27 | Cn1ccnc1-c1ccc(NCC2COCCO2)nn1 (configuration not stated) | -5.53%
28 | CN1CCN(CCC(F)(F)C(F)F)CC12CCNC(=O)CC2 (configuration not stated) | 4.17%
29 | NC1(C(=O)NCCC2CN(Cc3ccco3)CCO2)CCCC1 (configuration not stated) | 29.8%
30 | Cc1cc(C)c2c(N3CCC(O)(Cn4ccnc4)CC3)ncnc2n1 | -0.18%
31 | O=C(NCC(F)(F)F)C1CCC(=O)N(C2CCCC2)C1 (configuration not stated) | -3.8%
32 | CNc1ncc(CN(C)C(=O)[C@@]23CNC[C@@H]2CN(C2CCCC2)C3)cn1 | -4.91%
33 | COc1ccc(F)cc1C(=O)C1CCCN(Cc2ccc(C)s2)C1 (configuration not stated) | -12.9%
34 | O=C(NCCN1CCOC1=O)c1ccc2sccc2c1 | -4.67%
35 | CC(C)[C@@H](N)C(=O)NCc1cccnc1N1CCc2ccccc2C1 | -4.97%
36 | COc1cccc2c(=O)n(Cc3nc(C)cc(O)n3)cnc12 | -12.5%
37 | CC(C)c1ccc(NC2CCCN(Cc3ccncc3)C2)cc1 (configuration not stated) | 0.778%
38 | Cc1cc(C)c(C(=O)N2CCOC(CCN(C)C)C2)o1 (configuration not stated) | -14.2%
39 | Cc1nnsc1C(=O)NCc1cccnc1N(C)C | -3.02%
40 | CCc1c(C)nn(CC(=O)NC(C)c2n[nH]c(C)n2)c1C (configuration not stated) | 16.1%
41 | COc1ccc(F)c(CN2CCCC3(CCN(S(C)(=O)=O)C3)C2)c1 (configuration not stated) | -10.2%
42 | CCCc1nc(C)cc(N2CCC3(CCC(=O)N(C4CC4)C3)CC2)n1 | -5.2%
43 | CN1CC2(CCN(C(=O)c3ccc(-n4cccn4)cc3Cl)C2)OC1=O (configuration not stated) | -2.7%
44 | CCCc1nc(CNc2nc(C)nc3oc(C)nc23)cs1 | -6.15%
45 | CCn1nc(CC(C)C)cc1C(=O)NCC(F)(F)F | 12.8%
46 | Cc1nccn1CCCN1CCC(c2nccn2CC2CCC2)CC1 | -3.77%

Row | SMILES | cytotoxicity at 70.5 h
47 | Cc1cc(N2CC[C@H](O)C2)n2nc(C)c(C)c2n1 | -1.97%
48 | O=C(Cc1cccc(O)c1)N1CCCC(OCc2cccnc2)C1 (configuration not stated) | -7.55%
49 | CC(C)N1CCC(CC(=O)NC[C@H]2CCc3ccccc3O2)CC1 | -11.9%
50 | Cc1nn(C)c2nc(NC3CCNCC3)sc12 | 1.8%
51 | CN(CC1COCCO1)c1ncnc2cc(F)ccc12 (configuration not stated) | 19%
52 | CCCn1ccnc1CNC(=O)C1COc2cc(OC)ccc2C1 (configuration not stated) | -5.58%
53 | Cc1nc(CCNC(=O)C2CC(=O)N(C(C)C)C2)sc1C (configuration not stated) | -10.3%
54 | CCOCCn1c(=O)n(Cc2ccccc2F)c2cc(C(=O)O)cnc21 | 11.9%
55 | Cc1cc(C2CCC2)nc(N(C)Cc2cc(-c3ccccn3)no2)n1 | -6.04%
56 | COc1ccc(CN2CCCC2)cc1Oc1cccc(C#N)n1 | -2.11%
57 | Cc1cc2nc(-c3ccccc3)cc(NCC3CCS(=O)(=O)C3)n2n1 (configuration not stated) | 8.05%
58 | COc1ccc(C(C(=O)O)N2CCC(Cn3cccn3)CC2)c(OC)n1 (configuration not stated) | 15.1%
59 | Cc1oc(-c2cc(F)cc(F)c2)nc1CN1C[C@@H](C)NC[C@@H]1C | -11.7%
60 | Cc1ncc(C(=O)N2CC[C@@]3(O)CCN(C4CCCCC4)C[C@H]3C2)cn1 | -7.37%
61 | CC(C)c1cncnc1N1CC[C@H](N2CCOCC2)[C@H](CCCO)C1 | -9.63%
62 | CC(C)Cc1cc(C(=O)NCC(O)CN2CCCCCC2)on1 (configuration not stated) | -3.2%
63 | CC[C@@]1(O)CCN(C(=O)CN(C)Cc2ccc(F)cc2)C[C@H]1O | 17.3%
64 | COc1ccc(-c2nc3c([nH]2)CCNC3C(=O)O)c2ccc(C)nc12 (configuration not stated) | 12.4%
65 | CN1CCCC1CCn1ccnc1-c1nc2ccccc2[nH]1 (configuration not stated) | -0.748%
66 | CCNc1nc(C)c(C(=O)N2CCN(c3ncccc3C)CC2)s1 | -4.75%
67 | O=S(=O)(NCCc1nc(-c2cccnc2)n[nH]1)NCc1ccccc1 | -7.05%
68 | N[C@H]1CN(S(=O)(=O)c2cccnc2)C[C@@H]1C1CC1 | -4.49%
69 | Cc1nc(C)c(C)c(NCCSCc2[nH]cnc2C)n1 | -5.17%

Row | SMILES | cytotoxicity at 70.5 h
70 | COc1ccc(CN2CCCn3cncc3C2)cc1Cn1cncn1 | -8.65%
71 | Cc1ccc(NC2(C(=O)NCCCN)CCCC2)cc1 | -8.06%
72 | OC1(CN2CCCC2)COCCN(c2ncnc3[nH]ccc23)C1 (configuration not stated) | -3.06%
73 | CN(CC1CCCO1)c1nc(-c2cccnc2)nc2c1CCNCC2 (configuration not stated) | -10.6%
74 | CN(Cc1n[nH]c(=O)n1Cc1ccccc1F)S(C)(=O)=O | 5.65%
75 | COc1ccccc1Oc1ncccc1CNC(=O)C(C)N1CCCC1 (configuration not stated) | -1.98%
76 | CC(=O)N1CCN(CC2CCOc3ccccc3C2)CC1 (configuration not stated) | -1.42%
77 | CN(C)CCNC(=O)c1cnc2c(c1)nc(-c1ccccc1Cl)n2C | -10.7%
78 | O=C(O)C(c1ccc2c(c1)OCCO2)N1CCCCCC1 (configuration not stated) | -7.26%
79 | CC(C(=O)N1CCCC1)N1CCC(c2nccn2CC2CCC2)CC1 (configuration not stated) | -4.27%
80 | O=C(N[C@@H]1CCNC[C@H]1O)c1ccc(F)c(Cl)c1 | -7.9%
81 | Cc1cc(C)nc(N2Cc3cnn(Cc4ccc(F)cc4)c3C2)n1 | 13.2%
82 | Cc1noc(C)c1CN1C(=O)[C@H]2CC[C@@H]1CN(Cc1cccnc1N)C2 | 16.1%
83 | Cn1c(CN2CCCC2)nnc1C1CCCN(C(=O)C2CCOCC2)C1 (configuration not stated) | -3.01%
84 | CN(C)S(=O)(=O)N1CCN(C(=O)c2ccc3ccn(C)c3c2)CC1 | -7.35%
85 | CC(=O)N1CCCN(c2nccc(-c3cn(C)nc3C)n2)CC1 | -2.77%
86 | O=C(c1ccc2c(c1)CCC2)N1C[C@@H](CN2CCOCC2)[C@@H](CO)C1 | -6.01%
87 | O=C(CCc1ccc(O)cc1)N1CCC(Cc2ccc(CO)cc2)C1 (configuration not stated) | -9.62%
88 | CSCC(=O)N1CCCN(c2ccccc2C)CC1 | -4.65%
89 | CNc1nc(C(=O)N2CCCC(c3nccn3CC3CCC3)C2)cs1 (configuration not stated) | 8.97%
90 | CCN(CCn1cccn1)Cc1nc(-c2cccs2)oc1C | -9.82%
91 | Cc1cnn(CCC(=O)N2C[C@H]3CC[C@@H]2CN(CC(=O)N(C)C)C3)c1 | -3.83%
92 | FC(F)(F)c1nc(NC2CCCC2)c2ccccc2n1 | -12.8%

Row | SMILES | cytotoxicity at 70.5 h
93 | CCCNCC1(O)CCCN(Cc2cccc(C)c2)C1=O (configuration not stated) | -3.03%
94 | COc1cccc2c1OCC(C(=O)NC1CCN(S(C)(=O)=O)CC1)C2 (configuration not stated) | 14%
95 | Cc1nc(Cn2nc(C3CCNCC3)n(Cc3ccccc3)c2=O)no1 | 6.65%
96 | Cc1cc(F)ccc1CN1CCC(O)(CN2CCCCC2)C1 (configuration not stated) | -1.38%
97 | CC(C)N1CCCC2(CCN(C(=O)CCCn3cncn3)C2)C1=O (configuration not stated) | -4.98%
98 | Cc1nc(C)c(CC(=O)N2C[C@H]3CC[C@@H]2CN(C(=O)N(C)C)C3)c(=O)[nH]1 | 15.9%
99 | COCc1noc(-c2ccc(N(C)Cc3cc(C)no3)nc2)n1 | -6.05%
100 | O=C(c1ccccn1)N1C[C@@H]2CC[C@H](C1)N(C(=O)CCc1ccsc1)C2 | -10.8%
101 | CCCN1CCCn2nc(CNS(=O)(=O)c3ccc(C)cc3)cc2C1 | -6.85%
102 | CC(C)CN1CCc2[nH]cnc2C12CCN(C(=O)c1cccnc1)CC2 | 12.4%
103 | Cn1cc(CNc2ncnc3c2CCN(Cc2ccsc2)CC3)cn1 | 0.199%
104 | NC(=O)CN1CCC(C(=O)N2CCCC(OCc3cccnc3)C2)CC1 (configuration not stated) | -11%
105 | CC(C)SCC(=O)N1CCc2c(nc(N(C)C)nc2N(C)C)C1 | -9.5%
106 | COc1ccccc1OCc1cc(C(=O)N2CCN[C@H](C)C2)n[nH]1 | -5.99%
107 | Cc1nn2c(N3CCC(O)CC3)cc(-c3ccccc3)nc2c1C | -3.29%
108 | CCn1c(N)nc2cc(C(=O)NCc3ccccc3Cl)cnc21 | 0.502%
109 | CCOCCn1c(=O)[nH]c2cc(C(=O)N(C)Cc3nc(C)cs3)ccc21 | -12.4%
110 | CCc1cnc(N)nc1NCCN1CCCCC1 | 23%
111 | O=C(c1ccc(C2CCCO2)s1)N1CCN(c2ccccc2F)CC1 (configuration not stated) | -4.35%
112 | CC(C)c1cc(N2CCC(N)CC2)n2nccc2n1 | -4%
